Data reported in ChEMBL document CHEMBL1147864, “Synthesis of new sugar derivatives from Stachys sieboldi Miq and antibacterial evaluation against Mycobacterium tuberculosis, Mycobacterium avium, and Staphylococcus aureus” (2007).
In brackets after ≈: the same amount, converted by molar mass.

Assays:
Format in all cases: functional
Settings in all cases: 336 h
[1] = tested on: Mycobacterium tuberculosis; experiment: Antimycobacterial activity against isoniazide-rifampicin-streptomycin-ethambutol-resistant Mycobacterium tuberculosis Z-1-4 after 2 weeks by broth dilution method
[2] = tested on: Mycobacterium tuberculosis; experiment: Antimycobacterial activity against streptomycin resistant Mycobacterium tuberculosis A-3-47 after 2 weeks by broth dilution method
[3] = tested on: Mycobacterium tuberculosis; experiment: Antimycobacterial activity against isoniazide-rifampicin-streptomycin-ethambutol-resistant Mycobacterium tuberculosis E-1-40 after 2 weeks by broth dilution method
[4] = tested on: Mycobacterium tuberculosis; experiment: Antimycobacterial activity against isoniazide-rifampicin-streptomycin-ethambutol-resistant Mycobacterium tuberculosis C-1-29 after 2 weeks by broth dilution method
[5] = tested on: Mycobacterium tuberculosis; experiment: Antimycobacterial activity against isoniazide-rifampicin-streptomycin-ethambutol-resistant Mycobacterium tuberculosis U-2-15 after 2 weeks by broth dilution method
[6] = tested on: Mycobacterium tuberculosis; experiment: Antimycobacterial activity against isoniazide-rifampicin-streptomycin-ethambutol-resistant Mycobacterium tuberculosis R-1-38 after 2 weeks by broth dilution method
[7] = tested on: Mycobacterium tuberculosis; experiment: Antimycobacterial activity against isoniazide-rifampicin-streptomycin-ethambutol-resistant Mycobacterium tuberculosis Q-4-1 after 2 weeks by broth dilution method
[8] = tested on: Mycobacterium tuberculosis; experiment: Antimycobacterial activity against isoniazide-rifampicin-streptomycin-ethambutol-resistant Mycobacterium tuberculosis Z-1-2 after 2 weeks by broth dilution method
[9] = tested on: Mycobacterium tuberculosis; experiment: Antimycobacterial activity against rifampicin resistant Mycobacterium tuberculosis A-2-4 after 2 weeks by broth dilution method
[10] = tested on: Mycobacterium tuberculosis; experiment: Antimycobacterial activity against isoniazide-rifampicin-ethambutol-resistant Mycobacterium tuberculosis J-1-19 after 2 weeks by broth dilution method
[11] = tested on: Mycobacterium tuberculosis; experiment: Antimycobacterial activity against isoniazide-rifampicin-streptomycin-ethambutol-resistant Mycobacterium tuberculosis U-4-6 after 2 weeks by broth dilution method
[12] = tested on: Mycobacterium tuberculosis; experiment: Antimycobacterial activity against isoniazide resistant Mycobacterium tuberculosis K-3-6 after 2 weeks by broth dilution method
[13] = tested on: Mycobacterium tuberculosis; experiment: Antimycobacterial activity against isoniazide-rifampicin resistant Mycobacterium tuberculosis A-2-3 after 2 weeks by broth dilution method
[14] = tested on: Mycobacterium tuberculosis; experiment: Antimycobacterial activity against isoniazide-rifampicin-streptomycin-ethambutol-resistant Mycobacterium tuberculosis A-2-6 after 2 weeks by broth dilution method
[15] = tested on: Mycobacterium tuberculosis; experiment: Antimycobacterial activity against isoniazide-rifampicin-ethambutol-resistant Mycobacterium tuberculosis A-4-30 after 2 weeks by broth dilution method
[16] = tested on: Mycobacterium tuberculosis; experiment: Antimycobacterial activity against streptomycin resistant Mycobacterium tuberculosis A-4-8 after 2 weeks by broth dilution method
[17] = tested on: Mycobacterium tuberculosis; experiment: Antimycobacterial activity against isoniazide-rifampicin-streptomycin-ethambutol-resistant Mycobacterium tuberculosis M-1-32 after 2 weeks by broth dilution method
[18] = tested on: Mycobacterium tuberculosis; experiment: Antimycobacterial activity against isoniazide-rifampicin-streptomycin-ethambutol-resistant Mycobacterium tuberculosis P-4-11after 2 weeks by broth dilution method
[19] = tested on: Mycobacterium tuberculosis; experiment: Antimycobacterial activity against isoniazide-rifampicin-streptomycin-ethambutol-resistant Mycobacterium tuberculosis N-5-2 after 2 weeks by broth dilution method
[20] = tested on: Mycobacterium tuberculosis; experiment: Antimycobacterial activity against isoniazide-rifampicin-streptomycin-ethambutol-resistant Mycobacterium tuberculosis P-1-50 after 2 weeks by broth dilution method
[21] = tested on: Mycobacterium tuberculosis; experiment: Antimycobacterial activity against isoniazide-rifampicin-streptomycin-ethambutol-resistant Mycobacterium tuberculosis V-1-16 after 2 weeks by broth dilution method
[22] = tested on: Mycobacterium tuberculosis; experiment: Antimycobacterial activity against isoniazide-streptomycin resistant Mycobacterium tuberculosis A-4-25 after 2 weeks by broth dilution method
[23] = tested on: Mycobacterium tuberculosis; experiment: Antimycobacterial activity against isoniazide-rifampicin-streptomycin-ethambutol-resistant Mycobacterium tuberculosis S-1-14 after 2 weeks by broth dilution method
[24] = tested on: Mycobacterium tuberculosis; experiment: Antimycobacterial activity against isoniazide-rifampicin-ethambutol-resistant Mycobacterium tuberculosis N-4-11 after 2 weeks by broth dilution method
[25] = tested on: Mycobacterium tuberculosis; experiment: Antimycobacterial activity against isoniazide resistant Mycobacterium tuberculosis A-2-1 after 2 weeks by broth dilution method

Question: With `C=CCO[C@@H]1O[C@H](CO[C@H]2O[C@H](CO[C@H]3O[C@H](COC(C)=O)[C@H](OC(C)=O)[C@H](OC(C)=O)[C@H]3OC(C)=O)[C@H](OC(C)=O)[C@H](OC(C)=O)[C@H]2OC(C)=O)[C@@H](OC(C)=O)[C@H](OC(C)=O)[C@H]1OC(C)=O` as the molecule, how does the MIC [1] read?
Answer: 6.25 µg/mL (≈ 6.48 µM)

Question: What about the MIC [2] of the same molecule?
Answer: 3.13 µg/mL (≈ 3.24 µM)

Question: And the MIC [3]?
Answer: 6.25 µg/mL (≈ 6.48 µM)

Question: What about the MIC [4] of the same molecule?
Answer: 12.5 µg/mL (≈ 13 µM)

Question: And the MIC [5]?
Answer: 6.25 µg/mL (≈ 6.48 µM)

Question: What about the MIC [6] of the same molecule?
Answer: 6.25 µg/mL (≈ 6.48 µM)

Question: What about the MIC [7] of the same molecule?
Answer: 6.25 µg/mL (≈ 6.48 µM)

Question: What about the MIC [8] of the same molecule?
Answer: 3.13 µg/mL (≈ 3.24 µM)

Question: What about the MIC [9] of the same molecule?
Answer: 12.5 µg/mL (≈ 13 µM)

Question: And the MIC [10]?
Answer: 3.13 µg/mL (≈ 3.24 µM)

Question: What about the MIC [11] of the same molecule?
Answer: 1.56 µg/mL (≈ 1.62 µM)

Question: What about the MIC [12] of the same molecule?
Answer: 3.13 µg/mL (≈ 3.24 µM)

Question: And the MIC [13]?
Answer: 3.13 µg/mL (≈ 3.24 µM)

Question: What about the MIC [14] of the same molecule?
Answer: 6.25 µg/mL (≈ 6.48 µM)

Question: What about the MIC [15] of the same molecule?
Answer: 6.25 µg/mL (≈ 6.48 µM)

Question: And the MIC [16]?
Answer: 6.25 µg/mL (≈ 6.48 µM)

Question: What about the MIC [17] of the same molecule?
Answer: 3.13 µg/mL (≈ 3.24 µM)

Question: What about the MIC [18] of the same molecule?
Answer: 3.13 µg/mL (≈ 3.24 µM)

Question: And the MIC [19]?
Answer: 3.13 µg/mL (≈ 3.24 µM)

Question: And the MIC [20]?
Answer: 3.13 µg/mL (≈ 3.24 µM)

Question: What about the MIC [21] of the same molecule?
Answer: 6.25 µg/mL (≈ 6.48 µM)

Question: And the MIC [22]?
Answer: 12.5 µg/mL (≈ 13 µM)

Question: And the MIC [23]?
Answer: 6.25 µg/mL (≈ 6.48 µM)

Question: What about the MIC [24] of the same molecule?
Answer: 3.13 µg/mL (≈ 3.24 µM)

Question: And the MIC [25]?
Answer: 3.13 µg/mL (≈ 3.24 µM)
